Results reported in ChEMBL document CHEMBL5465560, “Selectivity Literature for EUbOPEN Chemogenomic Library” (2024).
Blank lines part the entries; values can stand above or below the molecule they belong to.

How the values were obtained:
[1] = molecular target: Mitogen-activated protein kinase 8 (Homo sapiens, UniProt P45983); assay: Selectivity interaction (Enyzmatic assay) EUB0000601a MAPK8
[2] = molecular target: T1, cGMP-dependent protein kinase 1 (Homo sapiens) (UniProt Q13976); assay: Selectivity interaction (Kinase panel (Invitrogen)) EUB0000639a PRKG1; settings: at 200 nM
T1 sequence (whole entry): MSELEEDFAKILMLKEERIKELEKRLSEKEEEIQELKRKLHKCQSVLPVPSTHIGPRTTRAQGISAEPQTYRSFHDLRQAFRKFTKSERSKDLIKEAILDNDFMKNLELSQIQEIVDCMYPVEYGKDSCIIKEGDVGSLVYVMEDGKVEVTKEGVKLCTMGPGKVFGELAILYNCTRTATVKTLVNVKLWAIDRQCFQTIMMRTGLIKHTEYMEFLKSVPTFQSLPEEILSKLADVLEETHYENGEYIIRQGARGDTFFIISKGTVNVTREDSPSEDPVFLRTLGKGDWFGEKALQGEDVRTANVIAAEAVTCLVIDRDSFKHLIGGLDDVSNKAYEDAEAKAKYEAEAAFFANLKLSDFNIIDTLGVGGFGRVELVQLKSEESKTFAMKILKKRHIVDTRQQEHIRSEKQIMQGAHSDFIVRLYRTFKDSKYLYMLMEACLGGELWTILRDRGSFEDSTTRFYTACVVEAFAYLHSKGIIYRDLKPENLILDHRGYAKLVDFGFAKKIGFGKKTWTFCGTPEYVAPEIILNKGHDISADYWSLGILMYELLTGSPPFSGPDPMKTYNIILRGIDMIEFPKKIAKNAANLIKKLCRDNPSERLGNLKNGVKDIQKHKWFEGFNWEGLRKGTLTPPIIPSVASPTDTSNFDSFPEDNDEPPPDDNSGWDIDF

[3] = molecular target: T2, Serine/threonine-protein kinase ULK3 (Homo sapiens) (UniProt Q6PHR2); assay: Selectivity interaction (ActivX KiNativ screen (kinase selectivity in THP-1 cell lysates)) EUB0000639a ULK3; format: subcellular; settings: lysate, at 1 µM
T2 sequence (whole entry): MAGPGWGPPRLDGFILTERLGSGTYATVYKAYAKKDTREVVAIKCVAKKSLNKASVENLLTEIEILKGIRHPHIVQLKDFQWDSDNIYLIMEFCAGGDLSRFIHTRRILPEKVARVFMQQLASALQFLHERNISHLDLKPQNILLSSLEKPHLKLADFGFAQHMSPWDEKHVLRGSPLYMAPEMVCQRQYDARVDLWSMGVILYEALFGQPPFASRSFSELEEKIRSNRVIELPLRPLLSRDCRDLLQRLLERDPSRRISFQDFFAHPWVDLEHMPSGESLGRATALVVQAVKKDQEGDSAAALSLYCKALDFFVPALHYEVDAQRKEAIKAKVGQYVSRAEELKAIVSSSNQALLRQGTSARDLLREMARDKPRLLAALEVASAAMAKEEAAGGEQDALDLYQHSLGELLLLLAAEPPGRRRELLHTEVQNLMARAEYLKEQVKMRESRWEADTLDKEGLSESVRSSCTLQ

[4] = molecular target: T3, Tyrosine-protein kinase TXK (Homo sapiens) (UniProt P42681); assay: Selectivity interaction (KinomeScan (DiscoverX)) EUB0000595a TXK; settings: at 10 µM
T3 sequence (whole entry): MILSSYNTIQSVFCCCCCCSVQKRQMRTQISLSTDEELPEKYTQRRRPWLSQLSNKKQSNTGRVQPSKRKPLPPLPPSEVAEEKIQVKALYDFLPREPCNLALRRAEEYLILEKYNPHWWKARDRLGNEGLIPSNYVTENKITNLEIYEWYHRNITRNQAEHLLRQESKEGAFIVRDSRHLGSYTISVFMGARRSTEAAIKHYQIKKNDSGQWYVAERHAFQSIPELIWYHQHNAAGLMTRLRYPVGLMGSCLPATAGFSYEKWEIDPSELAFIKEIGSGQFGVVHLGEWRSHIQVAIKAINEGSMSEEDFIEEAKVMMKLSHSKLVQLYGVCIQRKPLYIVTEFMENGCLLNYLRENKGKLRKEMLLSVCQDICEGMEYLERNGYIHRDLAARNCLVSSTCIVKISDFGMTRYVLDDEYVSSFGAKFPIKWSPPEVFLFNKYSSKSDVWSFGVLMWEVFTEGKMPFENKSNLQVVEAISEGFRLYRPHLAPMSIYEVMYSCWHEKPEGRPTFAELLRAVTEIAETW

[5] = molecular target: Transcription intermediary factor 1-alpha (Homo sapiens) (UniProt O15164); assay: Selectivity interaction (Human bromodomain panel (DSF assay)) EUB0000233b TRIM24
[6] = molecular target: Ribosomal protein S6 kinase alpha-1 (Homo sapiens, UniProt Q15418); assay: Selectivity interaction (KinomeScan (DiscoverX)) EUB0000045b RPS6KA1; settings: at 1 µM
[7] = molecular target: Serine/threonine-protein kinase MRCK beta (Homo sapiens) (UniProt Q9Y5S2); assay: Selectivity interaction (KinomeScan (DiscoverX)) EUB0000655a CDC42BPB; settings: at 10 µM
[8] = molecular target: Serine/threonine-protein kinase Nek6 (Homo sapiens) (UniProt Q9HC98); assay: Selectivity interaction (KinomeScan (DiscoverX)) EUB0001619a NEK6; settings: at 1 µM
[9] = molecular target: T4, Protein arginine N-methyltransferase 9 (Homo sapiens, UniProt Q6P2P2); assay: Selectivity interaction (Scintillation proximity assays) EUB0000255b PRMT9
T4 sequence (Q6P2P2 whole entry): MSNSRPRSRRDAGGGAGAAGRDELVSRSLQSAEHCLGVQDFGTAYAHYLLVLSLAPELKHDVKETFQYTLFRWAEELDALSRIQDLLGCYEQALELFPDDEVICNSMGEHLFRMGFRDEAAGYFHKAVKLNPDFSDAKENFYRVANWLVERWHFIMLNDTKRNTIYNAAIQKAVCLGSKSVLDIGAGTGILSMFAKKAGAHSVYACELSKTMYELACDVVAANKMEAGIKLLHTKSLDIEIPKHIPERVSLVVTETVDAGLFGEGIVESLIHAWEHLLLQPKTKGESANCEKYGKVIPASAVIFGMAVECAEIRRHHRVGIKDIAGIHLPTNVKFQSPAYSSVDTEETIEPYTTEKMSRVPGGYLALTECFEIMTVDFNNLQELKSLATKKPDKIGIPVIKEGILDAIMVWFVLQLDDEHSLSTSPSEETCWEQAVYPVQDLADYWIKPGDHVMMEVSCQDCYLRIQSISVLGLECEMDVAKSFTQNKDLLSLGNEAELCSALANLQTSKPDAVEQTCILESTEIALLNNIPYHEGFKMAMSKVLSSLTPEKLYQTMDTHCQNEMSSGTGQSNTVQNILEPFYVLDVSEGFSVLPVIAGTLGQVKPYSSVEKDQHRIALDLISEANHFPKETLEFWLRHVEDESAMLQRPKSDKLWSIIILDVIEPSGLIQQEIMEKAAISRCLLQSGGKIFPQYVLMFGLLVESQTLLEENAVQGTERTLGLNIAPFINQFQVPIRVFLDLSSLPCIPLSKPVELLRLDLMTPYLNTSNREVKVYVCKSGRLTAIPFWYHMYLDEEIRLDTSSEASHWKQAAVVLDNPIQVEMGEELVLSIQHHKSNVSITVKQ

Sequence of Serine/threonine-protein kinase MRCK beta (Homo sapiens) (Q9Y5S2 whole entry): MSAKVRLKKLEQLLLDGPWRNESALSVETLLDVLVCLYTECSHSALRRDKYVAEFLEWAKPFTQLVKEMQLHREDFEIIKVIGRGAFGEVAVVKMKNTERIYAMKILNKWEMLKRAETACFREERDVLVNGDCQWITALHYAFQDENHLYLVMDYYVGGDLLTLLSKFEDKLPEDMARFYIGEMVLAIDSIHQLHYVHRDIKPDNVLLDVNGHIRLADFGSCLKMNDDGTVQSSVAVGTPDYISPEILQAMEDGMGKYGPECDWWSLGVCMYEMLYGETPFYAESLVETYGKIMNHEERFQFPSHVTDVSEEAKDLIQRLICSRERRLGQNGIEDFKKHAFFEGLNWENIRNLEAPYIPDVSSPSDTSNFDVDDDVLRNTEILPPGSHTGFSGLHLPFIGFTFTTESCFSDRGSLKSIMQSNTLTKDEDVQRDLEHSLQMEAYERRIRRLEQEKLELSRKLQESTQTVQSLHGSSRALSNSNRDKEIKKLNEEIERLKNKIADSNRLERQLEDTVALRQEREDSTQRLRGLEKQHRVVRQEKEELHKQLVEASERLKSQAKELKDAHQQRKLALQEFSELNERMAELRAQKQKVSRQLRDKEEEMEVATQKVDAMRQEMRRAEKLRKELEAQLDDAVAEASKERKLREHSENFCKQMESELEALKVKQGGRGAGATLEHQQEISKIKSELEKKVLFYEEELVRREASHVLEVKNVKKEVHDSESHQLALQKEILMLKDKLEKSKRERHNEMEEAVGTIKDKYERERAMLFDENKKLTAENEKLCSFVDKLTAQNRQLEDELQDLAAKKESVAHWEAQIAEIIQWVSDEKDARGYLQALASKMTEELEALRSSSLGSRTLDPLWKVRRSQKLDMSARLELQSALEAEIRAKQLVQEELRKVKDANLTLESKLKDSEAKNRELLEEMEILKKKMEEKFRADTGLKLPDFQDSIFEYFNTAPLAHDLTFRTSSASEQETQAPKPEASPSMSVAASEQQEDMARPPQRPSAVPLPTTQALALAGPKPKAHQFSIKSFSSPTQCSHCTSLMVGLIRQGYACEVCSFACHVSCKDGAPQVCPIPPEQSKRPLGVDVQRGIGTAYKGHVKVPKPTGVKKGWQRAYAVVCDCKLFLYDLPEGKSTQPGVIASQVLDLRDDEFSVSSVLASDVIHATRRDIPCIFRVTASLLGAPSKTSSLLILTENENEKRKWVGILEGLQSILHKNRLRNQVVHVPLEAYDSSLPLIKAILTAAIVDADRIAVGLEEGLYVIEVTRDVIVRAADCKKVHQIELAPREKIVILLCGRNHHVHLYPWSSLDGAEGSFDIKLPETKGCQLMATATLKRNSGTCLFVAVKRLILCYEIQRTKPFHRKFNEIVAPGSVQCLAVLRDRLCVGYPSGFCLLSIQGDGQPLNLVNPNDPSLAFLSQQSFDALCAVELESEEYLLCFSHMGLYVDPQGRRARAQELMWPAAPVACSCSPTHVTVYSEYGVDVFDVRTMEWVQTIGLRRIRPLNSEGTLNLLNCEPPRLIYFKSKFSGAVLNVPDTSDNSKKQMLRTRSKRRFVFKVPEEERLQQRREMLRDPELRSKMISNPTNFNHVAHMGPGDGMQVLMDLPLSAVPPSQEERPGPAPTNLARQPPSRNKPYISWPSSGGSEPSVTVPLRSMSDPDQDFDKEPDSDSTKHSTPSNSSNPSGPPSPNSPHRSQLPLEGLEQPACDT
Sequence of Mitogen-activated protein kinase 8 (P45983 whole entry): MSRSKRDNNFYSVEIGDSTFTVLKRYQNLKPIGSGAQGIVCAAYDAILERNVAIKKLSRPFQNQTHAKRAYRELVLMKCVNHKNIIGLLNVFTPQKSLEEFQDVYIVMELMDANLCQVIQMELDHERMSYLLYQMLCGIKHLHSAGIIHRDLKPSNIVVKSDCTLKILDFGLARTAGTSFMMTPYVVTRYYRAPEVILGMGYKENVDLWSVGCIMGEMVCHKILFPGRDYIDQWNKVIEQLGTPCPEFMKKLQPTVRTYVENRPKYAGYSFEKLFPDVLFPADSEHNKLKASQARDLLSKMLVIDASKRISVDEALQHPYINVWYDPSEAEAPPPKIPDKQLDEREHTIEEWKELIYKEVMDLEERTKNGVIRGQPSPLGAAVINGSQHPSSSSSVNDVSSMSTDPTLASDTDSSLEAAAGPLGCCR
Sequence of Serine/threonine-protein kinase Nek6 (Homo sapiens) (Q9HC98 whole entry): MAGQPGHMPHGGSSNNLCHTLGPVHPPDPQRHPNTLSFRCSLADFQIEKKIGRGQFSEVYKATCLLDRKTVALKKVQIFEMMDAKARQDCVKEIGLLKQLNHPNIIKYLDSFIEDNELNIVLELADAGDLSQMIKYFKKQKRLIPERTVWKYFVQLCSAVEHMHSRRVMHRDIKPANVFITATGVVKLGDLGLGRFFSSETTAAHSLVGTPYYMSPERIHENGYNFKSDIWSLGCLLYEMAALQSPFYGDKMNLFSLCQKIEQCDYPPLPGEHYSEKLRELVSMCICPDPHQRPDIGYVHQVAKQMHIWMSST
Sequence of Transcription intermediary factor 1-alpha (Homo sapiens) (O15164 whole entry): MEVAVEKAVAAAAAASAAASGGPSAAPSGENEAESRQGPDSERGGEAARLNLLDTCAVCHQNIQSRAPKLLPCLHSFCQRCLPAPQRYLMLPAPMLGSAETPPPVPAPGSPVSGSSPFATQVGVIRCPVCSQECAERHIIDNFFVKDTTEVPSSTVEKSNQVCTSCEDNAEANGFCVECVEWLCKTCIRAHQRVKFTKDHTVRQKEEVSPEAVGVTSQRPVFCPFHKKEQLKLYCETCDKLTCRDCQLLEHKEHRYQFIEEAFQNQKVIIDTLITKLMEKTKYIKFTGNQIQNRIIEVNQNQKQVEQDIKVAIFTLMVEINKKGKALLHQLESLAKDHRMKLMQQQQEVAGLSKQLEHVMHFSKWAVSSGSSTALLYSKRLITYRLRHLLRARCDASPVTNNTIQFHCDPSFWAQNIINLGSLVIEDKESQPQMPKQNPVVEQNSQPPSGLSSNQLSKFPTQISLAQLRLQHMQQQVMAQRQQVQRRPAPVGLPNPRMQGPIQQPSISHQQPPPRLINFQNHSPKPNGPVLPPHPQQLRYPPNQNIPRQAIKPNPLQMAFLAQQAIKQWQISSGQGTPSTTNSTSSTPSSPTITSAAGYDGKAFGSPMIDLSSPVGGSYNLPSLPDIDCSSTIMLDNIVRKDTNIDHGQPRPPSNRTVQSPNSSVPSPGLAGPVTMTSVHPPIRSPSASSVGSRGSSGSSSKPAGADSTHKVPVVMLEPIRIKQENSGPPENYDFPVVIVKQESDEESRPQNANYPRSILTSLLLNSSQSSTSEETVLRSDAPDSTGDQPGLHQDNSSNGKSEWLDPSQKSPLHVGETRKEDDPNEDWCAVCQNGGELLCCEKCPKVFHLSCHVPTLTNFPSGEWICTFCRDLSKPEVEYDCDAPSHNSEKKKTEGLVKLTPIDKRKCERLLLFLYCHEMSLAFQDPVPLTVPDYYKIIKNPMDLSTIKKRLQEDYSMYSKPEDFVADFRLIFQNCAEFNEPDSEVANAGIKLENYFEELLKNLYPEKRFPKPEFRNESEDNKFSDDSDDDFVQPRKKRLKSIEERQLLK
Sequence of Ribosomal protein S6 kinase alpha-1 (Q15418 whole entry): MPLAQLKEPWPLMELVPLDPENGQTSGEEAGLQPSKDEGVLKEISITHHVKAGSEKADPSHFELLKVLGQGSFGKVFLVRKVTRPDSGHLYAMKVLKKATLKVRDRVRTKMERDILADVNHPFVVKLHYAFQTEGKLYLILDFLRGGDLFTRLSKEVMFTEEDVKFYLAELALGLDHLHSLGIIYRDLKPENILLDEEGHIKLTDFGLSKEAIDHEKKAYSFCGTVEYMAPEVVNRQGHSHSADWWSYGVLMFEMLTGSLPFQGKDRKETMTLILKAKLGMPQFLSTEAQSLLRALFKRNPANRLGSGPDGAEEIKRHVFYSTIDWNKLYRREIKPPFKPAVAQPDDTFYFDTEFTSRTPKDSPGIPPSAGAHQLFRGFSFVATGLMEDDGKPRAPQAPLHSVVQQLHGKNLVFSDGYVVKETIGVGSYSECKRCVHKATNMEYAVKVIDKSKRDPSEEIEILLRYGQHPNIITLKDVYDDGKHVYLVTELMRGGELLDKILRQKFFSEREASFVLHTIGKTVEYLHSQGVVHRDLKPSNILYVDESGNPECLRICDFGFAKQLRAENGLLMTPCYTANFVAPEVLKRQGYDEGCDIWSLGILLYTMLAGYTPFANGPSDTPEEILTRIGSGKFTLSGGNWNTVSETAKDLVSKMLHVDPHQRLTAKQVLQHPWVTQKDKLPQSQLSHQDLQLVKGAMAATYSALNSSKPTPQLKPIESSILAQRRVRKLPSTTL

- IC50 [1]: > 10 µM
Structure (SMILES): CCc1cc(Nc2nccc(-c3c(-c4ccc(OC)c(C(=O)Nc5c(F)cccc5F)c4)nc4ccccn34)n2)c(OC)cc1N1CCC(N2CCN(S(C)(=O)=O)CC2)CC1

- % of inhibition [2]: 8.62%
- % of inhibition [3]: -4.6%
Structure (SMILES): CC[C@@H]1[C@H](F)C(=O)N[C@@H]1COc1nccc2cc(C(N)=O)c(OC)cc12 [ZIMLOVISERTIB]

Structure (SMILES): COCC(=O)NC/C=C/c1ccc2ncnc(Nc3ccc(Oc4ccc(C)nc4)c(C)c3)c2c1 [CP-724714]
- % of control [4]: 84%

- dTM [5]: < 2 K
Structure (SMILES): CN(C)CCCOc1ccc(-c2cc(NCCCn3cccn3)nc(S(C)(=O)=O)n2)cc1

Structure (SMILES): C=CC(=O)Nc1cc(-n2c(=O)ccc3cnc4ccc(-c5ccc(NS(C)(=O)=O)cc5)cc4c32)ccc1C
- % of control [6]: 91%

Structure (SMILES): CN(C)CCOc1ccc(-c2nc(-c3ccncc3)c(-c3ccc4c(c3)CC/C4=N\O)[nH]2)cc1
- % of control [7]: 89%

Structure (SMILES): N#Cc1cccc(-c2c[nH]c3ncnc(N4CCOCC4)c23)c1
- % of control [8]: 100%

Structure (SMILES): COCCN1CCC(c2cc(CN(C)C(=O)c3cccc(Oc4ccccc4)c3)ccn2)CC1
- IC50 [9]: > 10 µM
